# From article PMC4548243, “Nuclear Localization of the DNA Repair Scaffold XRCC1: Uncovering the Functional Role of a Bipartite NLS” (Scientific Reports, 2015)
# Residues, ends and D or L forms follow the SMILES beside them. *: point of attachment. FITC = O=C1OC2(c3ccc(O)cc3Oc3cc(O)ccc32)c2ccc(NC(=S)*)cc21
# Target: T1, Impα(70–529)(W184R/W231R) (Mus musculus, UniProt P52293, W184R/W231R)
# T1 construct: His tag; made in house; host or cells: E. coli BL21(DE3), pET30
# Test: Fluorescence polarization titration of FITC-labeled XRCC1 NLS peptides with major-site mutant Impα(70–529)(W184R/W231R)
# Type: binding, murine
# Conditions: relative to wild-type Impα(70–529)
# Experimental: A His-tagged murine Importin α protein with the Importin β binding domain (IBB) deleted, which is identical to Impα(70–529) studied by Fontes et al.[30], was expressed in E. coli. […] The major binding pocket double mutant W184R/W231R was created using a Quikchange site-directed mutagenesis kit (Agilent).
# Protein concentrations were determined by the Edelhoch procedure[59].
# Apparent peptide dissociation constants were determined based on fluorescence polarization measurements using FITC-labeled peptides. Impα(70–529) was exchanged into FP buffer (20 mM Tris, pH 7.7, 125 mM NaCl, 1 mM EDTA, 2 mM tris(2-carboxyethyl)phosphine, 5% sucrose, 10 mM NaN3). […] 50 μL volumes of the binding reactions were pipetted into wells of a 96-well black flat bottomed plate and fluorescence polarization was read at room temperature with the POLARstar Omega microplate reader (BMG Labtech) using excitation at 485 nm and emission at 520 nm. […] The fluorescence polarization values generated by the experiments are arbitrary, so for easy comparisons among samples, the data were normalized to a 0–100 scale after curve-fitting. […]
# Where Ycalc represents the fluorescence polarization value that is generated by the model. […]
# The FITC tags were selected in an attempt to minimize possible non-specific interactions of the fluorescein with the Impα(70–529). […] Concentrations of unlabeled peptides were determined by UV absorbance[62].
row,SMILES,"binding affinity to Impα(70–529)(W184R/W231R), in words"
1,CC(C)C[C@H](NC(=O)[C@H](CCCCN)NC(=O)[C@@H]1CCCN1C(=O)[C@H](CCCNC(=N)N)NC(=O)[C@H](CCCCN)NC(=O)[C@@H]1CCCN1C(=O)[C@@H](NC(=O)[C@@H](N)CO)C(C)C)C(=O)N1CCC[C@H]1C(=O)NCC(=O)N[C@@H](CCCCNC(=S)Nc1ccc2c(c1)C(=O)OC21c2ccc(O)cc2Oc2cc(O)ccc21)C(=O)O [Peptide M2] (H-SVPKRPKLPGK(FITC)-OH; N-terminus and C-terminus assumed),interacts only weakly
2,CC(C)C[C@H](NC(=O)[C@H](CCCCN)NC(=O)[C@H](CCCNC(=N)N)NC(=O)[C@H](CCCCN)NC(=O)CNC(=O)CNC(=S)Nc1ccc2c(c1)C(=O)OC21c2ccc(O)cc2Oc2cc(O)ccc21)C(=O)O [Peptide M1] ({FITC}-GGKRKL-OH; C-terminus assumed),essentially unaffected
